Reference: patent publication US20230416341A1, “IMPROVED THROMBIN INHIBITORS FOR TREATMENT OF THROMBOEMBOLIC CONDITIONS” (priority 2020, published 2023)

Assay: Blood loss after 3 mm tail transection (haemoglobin assay)
Conditions: mouse, in vivo, 10 mg/kg, 30 min
Text: “Blood loss” generally refers excessive bleeding or haemorrhage. Minor haemorrhage refers to clinically insignificant bleeding. Major haemorrhage refers to internal bleeding or when the individual loses sufficient amounts of blood to cause a haemodynamic instability. Blood loss may be measured clinically by measuring blood pressure, pulse rate, haemoglobin levels, urea levels in the blood, and/or by imaging. Indicators of major haemorrhage will be clear to a person skilled in the art. Blood loss may also be determined experimentally for example by measuring the total volume of blood collected from a mouse tail transection and may be quantified by measurement of haemoglobin (mg/dL) present in the total volume of blood lost during a specified observation period (for example 20 minutes). Total haemoglobin may be assessed via a commercially available Haemoglobin colorimetric assay kit (Cat #MAK115; Sigma-Aldrich).
Blood loss was assessed by carrying out a 3 mm tail transection (lop) in rodents, to assess blood loss following compound/drug administration. Tail lop was performed using a standard transection 3 mm from the tip of the tail (Schoenwaelder et al, 2011, Blood). The tail was immediately immersed in pre-warmed sterile saline (37° C.) and time to bleeding cessation and rebleeding events monitored for 30 minutes following transection. […]

CC1CNc2c(cccc2S(=O)(=O)N[C@@H](CCCNC(=N)N)C(=O)N2CC[C@@H](C)C[C@@H]2C(=O)O)C1 (stereo partly shown) [argatroban]
blood loss (haemoglobin): over 2000 mg/dL
